Source: PubChem BioAssay AID1918993 (Molecular Pharmacology Branch, DTP, NCI, 2023)
pIC50: −log10 of the molar value.

System: 233499-124-R-J3-PDC complex spheroid growth
Test: Anticancer human tumor 233499-124-R-J3-PDC patient-derived colon adenocarcinoma cell line growth inhibition [AhR]
Details: for pIC50: curve of first compound; for viability, T/C: stronger effect = lower value; active means viability on the fitted dose curve at most 10% of control; inactive means the rest
Procedure, shortened: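 Spheroids combined tumor cells with HUVEC endothelial cells and human MSCs as stroma. AhR antagonists were paired with standard or investigational drugs, each dosed in half-log steps down from near clinical Cmax, or from 10 microM where Cmax was unknown.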

[1] = second compound 0.1 µM, first compound 0.0316 µM
[2] = second compound 0.1 µM, first compound 0.1 µM
[3] = second compound 0.1 µM, first compound 0.316 µM
[4] = second compound 0.1 µM, first compound 1 µM
[5] = second compound 0.1 µM, first compound 3.16 µM
[6] = second compound 0.1 µM, first compound 10 µM
[7] = second compound 0.316 µM, first compound 0.0316 µM
[8] = second compound 0.316 µM, first compound 0.1 µM
[9] = second compound 0.316 µM, first compound 0.316 µM
[10] = second compound 0.316 µM, first compound 1 µM
[11] = second compound 0.316 µM, first compound 3.16 µM
[12] = second compound 0.316 µM, first compound 10 µM
[13] = second compound 1 µM, first compound 0.0316 µM
[14] = second compound 1 µM, first compound 0.1 µM
[15] = second compound 1 µM, first compound 0.316 µM
[16] = second compound 1 µM, first compound 1 µM
[17] = second compound 1 µM, first compound 3.16 µM
[18] = second compound 1 µM, first compound 10 µM
[19] = second compound 3.16 µM, first compound 0.0316 µM
[20] = second compound 3.16 µM, first compound 0.1 µM
[21] = second compound 3.16 µM, first compound 0.316 µM
[22] = second compound 3.16 µM, first compound 1 µM
[23] = second compound 3.16 µM, first compound 3.16 µM
[24] = second compound 3.16 µM, first compound 10 µM
[25] = second compound 10 µM, first compound 0.0316 µM
[26] = second compound 10 µM, first compound 0.1 µM
[27] = second compound 10 µM, first compound 0.316 µM
[28] = second compound 10 µM, first compound 1 µM
[29] = second compound 10 µM, first compound 3.16 µM
[30] = second compound 10 µM, first compound 10 µM
[31] = second compound 0.1 µM, first compound 0.00949 µM
[32] = second compound 0.1 µM, first compound 0.03 µM
[33] = second compound 0.1 µM, first compound 0.0949 µM
[34] = second compound 0.1 µM, first compound 0.3 µM
[35] = second compound 0.316 µM, first compound 0.00949 µM
[36] = second compound 0.316 µM, first compound 0.03 µM
[37] = second compound 0.316 µM, first compound 0.0949 µM
[38] = second compound 0.316 µM, first compound 0.3 µM
[39] = second compound 1 µM, first compound 0.00949 µM
[40] = second compound 1 µM, first compound 0.03 µM
[41] = second compound 1 µM, first compound 0.0949 µM
[42] = second compound 1 µM, first compound 0.3 µM
[43] = second compound 3.16 µM, first compound 0.00949 µM
[44] = second compound 3.16 µM, first compound 0.03 µM
[45] = second compound 3.16 µM, first compound 0.0949 µM
[46] = second compound 3.16 µM, first compound 0.3 µM
[47] = second compound 10 µM, first compound 0.00949 µM
[48] = second compound 10 µM, first compound 0.03 µM
[49] = second compound 10 µM, first compound 0.0949 µM
[50] = second compound 10 µM, first compound 0.3 µM
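Further: spheroids exposed to agents for seven days before reading.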

CC1(C)CCC(CN2CCN(c3ccc(C(=O)NS(=O)(=O)c4ccc(NCC5CCOCC5)c([N+](=O)[O-])c4)c(Oc4cnc5[nH]ccc5c4)c3)CC2)=C(c2ccc(Cl)cc2)C1 + Cc1ccccc1N=Nc1ccc(NC(=O)c2ccnn2C)c(C)c1
inactive: viability, T/C [1] 94.8% | viability, T/C [2] 116% | viability, T/C [3] 102% | viability, T/C [4] 108% | viability, T/C [5] 117% | viability, T/C [6] 51.5% | viability, T/C [7] 111% | viability, T/C [8] 110% | viability, T/C [9] 97% | viability, T/C [10] 112% | viability, T/C [11] 118% | viability, T/C [12] 41.8% | viability, T/C [13] 104% | viability, T/C [14] 106% | viability, T/C [15] 97.6% | viability, T/C [16] 122% | viability, T/C [17] 122% | viability, T/C [18] 45.5% | viability, T/C [19] 102% | viability, T/C [20] 97.7% | viability, T/C [21] 104% | viability, T/C [22] 99.4% | viability, T/C [23] 113% | viability, T/C [24] 32.2% | viability, T/C [25] 121% | viability, T/C [26] 99.3% | viability, T/C [27] 112% | viability, T/C [28] 107% | viability, T/C [29] 109% | viability, T/C [30] 26.6%
5.14: pIC50 (second compound 10 µM)
5.03: pIC50 (second compound 1 µM)
5.13: pIC50 (second compound 3.16 µM)
5.06: pIC50 (second compound 0.316 µM)
< 5.00: pIC50 (second compound 0.1 µM)

CC1COCCN1c1cc(C2(S(C)(=N)=O)CC2)nc(-c2ccnc3[nH]ccc23)n1 (stereo not given) + Cc1ccccc1N=Nc1ccc(NC(=O)c2ccnn2C)c(C)c1
inactive: viability, T/C [1] 103% | viability, T/C [2] 112% | viability, T/C [3] 91.2% | viability, T/C [4] 97.8% | viability, T/C [5] 88.8% | viability, T/C [6] 91% | viability, T/C [7] 113% | viability, T/C [8] 107% | viability, T/C [9] 94.5% | viability, T/C [10] 99.7% | viability, T/C [11] 96.6% | viability, T/C [12] 85% | viability, T/C [13] 103% | viability, T/C [14] 100% | viability, T/C [15] 104% | viability, T/C [16] 97.6% | viability, T/C [17] 77.7% | viability, T/C [18] 74.2% | viability, T/C [19] 112% | viability, T/C [20] 110% | viability, T/C [21] 105% | viability, T/C [22] 101% | viability, T/C [23] 99.7% | viability, T/C [24] 84.1% | viability, T/C [25] 108% | viability, T/C [26] 107% | viability, T/C [27] 118% | viability, T/C [28] 106% | viability, T/C [29] 109% | viability, T/C [30] 77.8%
< 5.00: pIC50 (second compound 0.1 µM) | pIC50 (second compound 0.316 µM) | pIC50 (second compound 1 µM) | pIC50 (second compound 3.16 µM) | pIC50 (second compound 10 µM)

CCN(c1cc(-c2ccc(CN3CCOCC3)cc2)cc(C(=O)NCc2c(C)cc(C)[nH]c2=O)c1C)C1CCOCC1 + Cc1ccccc1N=Nc1ccc(NC(=O)c2ccnn2C)c(C)c1
inactive: viability, T/C [31] 99.3% | viability, T/C [32] 98% | viability, T/C [33] 95.1% | viability, T/C [34] 97.1% | viability, T/C (second compound 0.1 µM, first compound 0.949 µM) 97.2% | viability, T/C (second compound 0.1 µM, first compound 3 µM) 102% | viability, T/C [35] 88% | viability, T/C [36] 95.8% | viability, T/C [37] 100% | viability, T/C [38] 95.3% | viability, T/C (second compound 0.316 µM, first compound 0.949 µM) 98.3% | viability, T/C (second compound 0.316 µM, first compound 3 µM) 96.6% | viability, T/C [39] 107% | viability, T/C [40] 97.6% | viability, T/C [41] 104% | viability, T/C [42] 93.1% | viability, T/C (second compound 1 µM, first compound 0.949 µM) 92.3% | viability, T/C (second compound 1 µM, first compound 3 µM) 100% | viability, T/C [43] 95.1% | viability, T/C [44] 93.9% | viability, T/C [45] 105% | viability, T/C [46] 91.7% | viability, T/C (second compound 3.16 µM, first compound 0.949 µM) 92.6% | viability, T/C (second compound 3.16 µM, first compound 3 µM) 93.7% | viability, T/C [47] 101% | viability, T/C [48] 96.1% | viability, T/C [49] 91.8% | viability, T/C [50] 92.7% | viability, T/C (second compound 10 µM, first compound 0.949 µM) 93.9% | viability, T/C (second compound 10 µM, first compound 3 µM) 99.5%
< 5.52: pIC50 (second compound 0.1 µM) | pIC50 (second compound 0.316 µM) | pIC50 (second compound 1 µM) | pIC50 (second compound 3.16 µM) | pIC50 (second compound 10 µM)

Cn1ncnc1C1c2n[nH]c(=O)c3cc(F)cc(c23)NC1c1ccc(F)cc1 (stereo not given) + Cc1ccccc1N=Nc1ccc(NC(=O)c2ccnn2C)c(C)c1
inactive: viability, T/C (second compound 0.1 µM, first compound 0.000316 µM) 104% | viability, T/C (second compound 0.1 µM, first compound 0.001 µM) 107% | viability, T/C (second compound 0.1 µM, first compound 0.00316 µM) 110% | viability, T/C (second compound 0.1 µM, first compound 0.01 µM) 110% | viability, T/C [1] 99.2% | viability, T/C [2] 106% | viability, T/C (second compound 0.316 µM, first compound 0.000316 µM) 93% | viability, T/C (second compound 0.316 µM, first compound 0.001 µM) 105% | viability, T/C (second compound 0.316 µM, first compound 0.00316 µM) 106% | viability, T/C (second compound 0.316 µM, first compound 0.01 µM) 101% | viability, T/C [7] 95.8% | viability, T/C [8] 94.7% | viability, T/C (second compound 1 µM, first compound 0.000316 µM) 108% | viability, T/C (second compound 1 µM, first compound 0.001 µM) 113% | viability, T/C (second compound 1 µM, first compound 0.00316 µM) 103% | viability, T/C (second compound 1 µM, first compound 0.01 µM) 101% | viability, T/C [13] 99% | viability, T/C [14] 109% | viability, T/C (second compound 3.16 µM, first compound 0.000316 µM) 95.6% | viability, T/C (second compound 3.16 µM, first compound 0.001 µM) 102% | viability, T/C (second compound 3.16 µM, first compound 0.00316 µM) 90.3% | viability, T/C (second compound 3.16 µM, first compound 0.01 µM) 97.2% | viability, T/C [19] 94.9% | viability, T/C [20] 99.2% | viability, T/C (second compound 10 µM, first compound 0.000316 µM) 109% | viability, T/C (second compound 10 µM, first compound 0.001 µM) 110% | viability, T/C (second compound 10 µM, first compound 0.00316 µM) 109% | viability, T/C (second compound 10 µM, first compound 0.01 µM) 98.7% | viability, T/C [25] 89.8% | viability, T/C [26] 98.9%
< 7.00: pIC50 (second compound 0.1 µM) | pIC50 (second compound 0.316 µM) | pIC50 (second compound 1 µM) | pIC50 (second compound 3.16 µM) | pIC50 (second compound 10 µM)

Nc1ncn(C2CC(O)C(CO)S2)c(=O)n1 (stereo not given) + Cc1ccccc1N=Nc1ccc(NC(=O)c2ccnn2C)c(C)c1
inactive: viability, T/C (second compound 0.1 µM, first compound 0.000949 µM) 91.9% | viability, T/C (second compound 0.1 µM, first compound 0.003 µM) 103% | viability, T/C [31] 87.7% | viability, T/C [32] 108% | viability, T/C [33] 109% | viability, T/C [34] 111% | viability, T/C (second compound 0.316 µM, first compound 0.000949 µM) 99.1% | viability, T/C (second compound 0.316 µM, first compound 0.003 µM) 114% | viability, T/C [35] 96.3% | viability, T/C [36] 107% | viability, T/C [37] 105% | viability, T/C [38] 84.7% | viability, T/C (second compound 1 µM, first compound 0.000949 µM) 110% | viability, T/C (second compound 1 µM, first compound 0.003 µM) 114% | viability, T/C [39] 95% | viability, T/C [40] 114% | viability, T/C [41] 116% | viability, T/C [42] 101% | viability, T/C (second compound 3.16 µM, first compound 0.000949 µM) 101% | viability, T/C (second compound 3.16 µM, first compound 0.003 µM) 108% | viability, T/C [43] 107% | viability, T/C [44] 107% | viability, T/C [45] 109% | viability, T/C [46] 107% | viability, T/C (second compound 10 µM, first compound 0.000949 µM) 104% | viability, T/C (second compound 10 µM, first compound 0.003 µM) 99.3% | viability, T/C [47] 107% | viability, T/C [48] 113% | viability, T/C [49] 94.8% | viability, T/C [50] 99.3%
< 6.52: pIC50 (second compound 0.1 µM) | pIC50 (second compound 0.316 µM) | pIC50 (second compound 1 µM) | pIC50 (second compound 3.16 µM) | pIC50 (second compound 10 µM)
